Results from patent US9683025B2, “Methods and compositions for treating cancer and inflammatory diseases” (The Regents of the University of Colorado, A Body Corporate, priority 2013, dated 2017).
“Also recorded” adds a separate entry of the source. Like-named read-outs stand apart in the source and are kept apart here. Where a SMILES comes first, the peptide text is derived from it.

Key:
[1] = test system: H1299 non-small cell lung carcinoma cells; assay: Cell viability, H1299; format: cell-based, human; conditions: H1299, CtBP overexpressing, FIG. 5
Description: (§1) The Tat peptide alone has no effect on these cells.

3T3 cells = assay: Cell viability, 3T3; format: cell-based, mouse; conditions: 3T3, does not significantly overexpress CtBP, FIG. 5
Description: as §1

[2] = test system: IMQ-based psoriasis model; assay: IMQ-based psoriasis model; format: in vivo, mouse; conditions: FIG. 15B, versus PBS
[3] = test system: CtBP target genes BAX, BRCA1, and E-Cadherin; assay: Real-time PCR of endogenous CtBP target genes in H1299 cells; format: cell-based, human; conditions: increasing concentrations, FIG. 6
Procedure: Total RNA was isolated using TRIzol (Invitrogen) as previously described (Zhang et al., 2006). One hundred nanograms of RNA from each sample were subjected to qRT-PCR (ThermoFisher). An 18S probe was used as an internal control. Each sample was examined in triplicate. Relative RNA expression levels were determined by normalizing with internal controls, the values were calculated using the comparative Ct method.
Subsequently, the transcription levels of the endogenous CtBP target genes BAX, BRCA1, and E-Cadherin in Tat-E1A treated H1299 cells were evaluated using real-time PCR.

A375 melanoma cells = assay: Cell viability, A375; format: cell-based; conditions: A375, CtBP overexpressing, FIG. 5
Description: as §1

CtBP [4] = biological target: T1, CtBP (Homo sapiens, UniProt Q13363); assay: Fluorescence polarization Kd determination of FITC-peptide with CtBP; format: binding
T1 construct: 6xHis
Procedure: (§2) Additional peptides were tested for in vitro inhibitory potency (Table 5). For Kd determination, FITC-labeled peptide (FITC-peptide) was incubated with varying concentrations of CtBP. The fluorescence polarization values of the FITC-peptide were measured and plotted against CtBP concentration to determine Kd of the FITC-peptide with CtBP using the Prism program. […] For IC50 determination, a fluorescence polarization assay was utilized. […] Increasing concentrations of unlabeled peptide were added to compete with the FITC-labeled peptide, leading to a decreased fluorescence polarization value.

CtBP [5] = biological target: T1, CtBP; assay: Fluorescence polarization competition of unlabeled peptide with FITC-labeled 14mer peptide; format: binding
Procedure: as §2

CtBP-E1A interaction [6] = biological target: T2, CtBP-E1A interaction (Homo sapiens, UniProt Q13363); assay: CtBP-E1A interaction inhibition (AlphaScreen / fluorescence polarization competition assay); format: binding; conditions: IC50 value, Table 3; inhibition of CtBP/E1A protein interaction
Procedure: The ability of peptides to inhibit CtBP binding can be monitored by two biochemical assays. An AlphaScreen assay (Perkin-Elmer) was developed that is capable of detecting the CtBP-E1A interaction. Purified GST-E1A and 6xHis-CtBP are incubated with glutathione-conjugated donor beads and nickel-chelated acceptor beads respectively. The interaction between CtBP and E1A brings the donor and acceptor beads in close proximity, which produces a fluorescence signal after laser excitation and can be detected using the EnVision plate reader. A peptide that inhibits this interaction will limit the proximity of the beads and thus a loss in fluorescence signal will occur. In addition to the alphascreen, a fluorescence polarization based assay with a fluorescein-labeled 14mer E1A peptide ([…] (SEQ ID NO: 1)) was also developed. Purified 6xHis-CtBP is incubated with the fluorescein-labeled E1A peptide and changes in the polarization value of the labeled peptide are detected using the EnVision plate reader. A decrease in peptide binding to CtBP can be detected by an […], and used to monitor peptide inhibition. IC50 values of designed peptides can be determined using either of these assays through the addition of increasing amounts in each well and monitoring the degree of inhibition of the CtBP-E1A interaction.
Multiple amino acid sequences may appear at positions outside the conserved peptide motif. The most frequently occurring amino acids in these positions are used to design the peptides that bind CtBP with the highest affinity. The affinity of these new peptides is compared to the original 14mer E1A peptide (SEQ ID NO:1) by comparing the IC50 of these peptides in inhibiting the CtBP/E1A protein interaction in a competition assay. The peptide identified from phage display that competes with the CtBP/E1A protein interaction better than the original 14mer E1A peptide is selected and conjugated to the cell penetrating peptide of the present invention. Also provided in Table 3 are […] for selected peptides.
The ability of peptides to inhibit CtBP binding can be monitored by two biochemical assays. An AlphaScreen assay (Perkin-Elmer) was developed that is capable of detecting the CtBP-E1A interaction. Purified GST-E1A and 6xHis-CtBP are incubated with glutathione-conjugated donor beads and nickel-chelated acceptor beads respectively. The interaction between CtBP and E1A brings the donor and acceptor beads in close proximity, which produces a fluorescence signal after laser excitation and can be detected using the EnVision plate reader. A peptide that inhibits this interaction will limit the proximity of the beads and thus a loss in fluorescence signal will occur. In addition to the alphascreen, a fluorescence polarization based assay with a fluorescein-labeled 14mer E1A peptide ([…] (SEQ ID NO: 1)) was also developed. Purified 6xHis-CtBP is incubated with the fluorescein-labeled E1A peptide and changes in the polarization value of the labeled peptide are detected using the EnVision plate reader. A decrease in peptide binding to CtBP can be detected by an […], and used to monitor peptide inhibition. IC50 values of designed peptides can be determined using either of these assays through the addition of increasing amounts in each well and monitoring the degree of inhibition of the CtBP-E1A interaction. Also provided in Table 4 are IC50 for selected peptides.

CtBP-E1A interaction [7] = biological target: T2, CtBP-E1A interaction; conditions: read-out: IC50 of inhibition of the CtBP/E1A interaction in vitro; Zhang et al. 2000; cited from earlier work

In the case of GRKKRRQRRRPPQLEEPGQPLDLSCKRPR [Tat-E1A], the cell viability [1] is reported as “reduces the viability”, the cell viability (3T3 cells) is reported as “does not affect” and the “erythema, thickening and scaling (cumulative score)” value [2] is reported as “Reduction”. The “CtBP-mediated suppression of target genes BAX, BRCA1, E-Cadherin (transcription levels)” value [3] was “dose-dependent alleviation; also recorded: relieves the suppression” and the cell viability (A375 melanoma cells) was “reduces the viability”.
In the case of CC(C)C[C@H](NC(=O)[C@H](CC(=O)O)NC(=O)[C@H](CC(C)C)NC(=O)[C@@H]1CCCN1C(=O)[C@H](CCC(N)=O)NC(=O)CNC(=O)[C@@H]1CCCN1C(=O)[C@@H](N)CCC(=O)O)C(=O)N[C@@H](CO)C(=O)N[C@@H](CS)C(=O)N[C@@H](CCCCN)C(=O)N[C@@H](CCCNC(=N)N)C(=O)N1CCC[C@H]1C(=O)N[C@@H](CCCNC(=N)N)C(=O)O [Wild-type, reference compound] (H-EPGQPLDLSCKRPR-OH; N-terminus and C-terminus assumed), the Kd (CtBP [4]) is reported as 4.3 µM, the IC50 (CtBP [5]) is reported as 6 µM and the IC50 (CtBP-E1A interaction [6]) is reported as 7.26 µM. The IC50 (CtBP-E1A interaction [7]) was ~7 µM.
